Laboratory results published in patent US12673946B2, “Pyrimidin-4(3H)-one derivatives as TRPV4 antagonists” (RaQualia Pharma Inc., priority 2020, dated 2026).
pIC50: −log10 of the molar value.

Molecular target: T1, human TRPV4 (Homo sapiens, UniProt Q9HBA0)
T1 construct: host or cells: tetracycline-inducible Flp-In T-REx 293 cells
Test: Hypotonicity-induced Ca2+ influx (Fluo-4, FDSS)
Type: cell-based
Experimental: Hypotonicity-Induced Ca^2+ Influx
TRPV4 channel activation/opening results in an influx of Ca^2+ (Liedtke, W. et al., 2000 (NPL 1)). The resulting changes in intracellular calcium are monitored using a Ca^2+ sensitive fluorescent dye Fluo-4 (Invitrogen). Dye loaded cells are treated with the test compounds for 5 minutes prior to the addition of a hypotonic solution and the inhibition of the hypotonicity-induced activation is recorded.
Forty microL of tetracycline-inducible Flp-In T-REx 293 cells (Invitrogen) stably expressing human TRPV4 are seeded onto the poly-D-lysine coated 384-well plate (Corning) at a density of 10,000 cells per well. The following day, TRPV4 expression is induced by adding 0.5 microg/mL tetracycline for 20-24 hours. On the day of the experiment, the media is removed and replaced with 40 microL of dye loading buffer [1 microM Fluo-4 AM (Invitrogen), 0.01% Pluronic F-127, and 20 mM HEPES in Hanks' balanced salt solutions (HBSS; Invitrogen)] and then the cells are incubated for 60 minutes at 25° C. Dye is then removed and replaced with 20 microL of assay buffer (20 mM HEPES in HBSS). Five minutes prior to the fluorescence measurement, 10 microL of test compound is added to the cells. Using the FDSS instrument (Hamamatsu Photonics), 30 microL of hypotonic solution (90 mM D-mannitol and 1.26 mM CaCl2 in ultrapure water) is added 30 seconds after the start of measurement. The calcium flux signal is recorded for a total of 4.5 minutes.

[1] = Flp-In T-REx 293 cells expressing human TRPV4, examples listed under heading 'Human IC50<50 nM'
[2] = Flp-In T-REx 293 cells stably expressing human TRPV4, compounds listed by potency bin (<10 nM Tables 96-1/96-2, <3 nM Table 97)

T1 sequence (Q9HBA0 whole entry): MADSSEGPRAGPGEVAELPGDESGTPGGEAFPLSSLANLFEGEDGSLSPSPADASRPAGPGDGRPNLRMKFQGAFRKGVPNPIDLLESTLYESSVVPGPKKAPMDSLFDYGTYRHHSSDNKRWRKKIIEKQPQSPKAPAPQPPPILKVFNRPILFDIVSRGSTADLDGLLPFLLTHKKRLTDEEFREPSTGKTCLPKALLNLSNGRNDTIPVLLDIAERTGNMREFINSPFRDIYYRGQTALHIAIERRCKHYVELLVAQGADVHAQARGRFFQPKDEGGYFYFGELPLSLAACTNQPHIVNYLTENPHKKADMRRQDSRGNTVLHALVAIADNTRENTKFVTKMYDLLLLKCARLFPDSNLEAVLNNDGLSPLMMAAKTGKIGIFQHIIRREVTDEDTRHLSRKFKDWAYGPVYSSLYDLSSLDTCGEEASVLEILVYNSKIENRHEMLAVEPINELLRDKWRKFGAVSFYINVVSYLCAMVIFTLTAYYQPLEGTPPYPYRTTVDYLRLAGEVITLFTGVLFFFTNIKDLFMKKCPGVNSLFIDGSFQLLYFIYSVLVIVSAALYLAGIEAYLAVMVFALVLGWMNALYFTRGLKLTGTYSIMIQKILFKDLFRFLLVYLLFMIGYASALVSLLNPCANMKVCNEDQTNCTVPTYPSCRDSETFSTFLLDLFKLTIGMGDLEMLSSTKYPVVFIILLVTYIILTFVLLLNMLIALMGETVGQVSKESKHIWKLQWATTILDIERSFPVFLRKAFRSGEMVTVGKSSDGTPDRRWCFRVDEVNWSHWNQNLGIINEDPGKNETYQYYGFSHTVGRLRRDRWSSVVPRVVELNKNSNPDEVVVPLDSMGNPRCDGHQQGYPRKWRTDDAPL

SMILES | pIC50 [1] | pIC50 [2]
O=C([C@H](O)c1cccc(Cl)c1)N1CCc2nc(C3(c4cc(C5CCOCC5)cs4)CC3)[nH]c(=O)c2C1 [15-15] | > 7.30 | –
O=C(C(O)c1cccc(C(F)(F)F)c1F)N1CCc2nc(C3(c4cccs4)CC3)[nH]c(=O)c2C1 (stereo not shown) [15-16] | > 7.30 | –
CC(C)(C)c1cccc(C(O)C(=O)N2CCc3nc(C4(c5cccs5)CC4)[nH]c(=O)c3C2)c1 (stereo not shown) [15-17] | > 7.30 | –
O=C([C@H](O)c1cccc(C(F)(F)F)c1)N1CCc2nc(C3(c4cccs4)CC3)[nH]c(=O)c2C1 [15-18] | > 7.30 | –
CC(C)c1csc(C2(c3nc4c(c(=O)[nH]3)CN(C(=O)C(O)c3cccc(C(C)(C)C)c3)CC4)CC2)c1 (stereo not shown) [15-24] | > 7.30 | > 8.00
CC(C)c1csc(C2(c3nc4c(c(=O)[nH]3)CN(C(=O)C(O)c3cccc(C(F)(F)F)c3F)CC4)CC2)c1 (stereo not shown) [15-26] | > 7.30 | > 8.00
CC(C)c1csc(C2(c3nc4c(c(=O)[nH]3)CN(C(=O)C(O)c3cccc(Cl)c3F)CC4)CC2)c1 (stereo not shown) [15-27] | > 7.30 | > 8.52
O=C(C(O)c1cccc(-c2cccc(OC(F)(F)F)c2)c1)N1CCc2nc(C3(c4cccs4)CC3)[nH]c(=O)c2C1 (stereo not shown) [15-28] | > 7.30 | > 8.52
O=C([C@H](O)c1cccc(Cl)c1)N1CCc2nc(C3(c4cncc(-c5ccccc5)c4)CC3)[nH]c(=O)c2C1 [16-1] | > 7.30 | > 8.52
O=C(C(O)c1cccc(C(F)(F)F)c1F)N1CCc2nc(C3(c4cncc(-c5ccccc5)c4)CC3)[nH]c(=O)c2C1 (stereo not shown) [16-2] | > 7.30 | > 8.00
C=C(C)c1cccc(C2(c3nc4c(c(=O)[nH]3)CN(C(=O)[C@H](O)c3cccc(C(F)(F)F)c3)CCC4)CC2)c1 [17-1] | > 7.30 | > 8.52
O=C([C@H](O)c1cccc(C(F)(F)F)c1)N1CCCc2nc(C3(c4cccc(C(F)(F)F)c4)CC3)[nH]c(=O)c2C1 [17-3] | > 7.30 | > 8.52
O=C(C(O)c1cccc(C(F)(F)F)c1F)N1CCCc2nc(C3(c4cccc(Cl)c4)CC3)[nH]c(=O)c2C1 (stereo not shown) [17-4] | > 7.30 | > 8.52
O=C(C(O)c1cccc(-c2cccc(F)c2)c1)N1CCCc2nc(C3(c4cccc(Cl)c4)CC3)[nH]c(=O)c2C1 (stereo not shown) [17-5] | > 7.30 | > 8.52
O=C([C@H](O)c1cccc(C(F)(F)F)c1)N1CCCc2nc(C3(c4cccc(OC(F)(F)F)c4)CC3)[nH]c(=O)c2C1 [17-6] | > 7.30 | > 8.52
O=C(C(O)c1cccc(Cl)c1F)N1CCCc2nc(C3(c4cccc(Cl)c4)CC3)[nH]c(=O)c2C1 (stereo not shown) [17-7] | > 7.30 | > 8.52
CC(C)c1cccc(C2(c3nc4c(c(=O)[nH]3)CN(C(=O)C(O)c3cccc(C(C)(C)C)c3)CCC4)CC2)c1 (stereo not shown) [17-8] | > 7.30 | > 8.52
CC(C)c1cccc(C2(c3nc4c(c(=O)[nH]3)CN(C(=O)C(O)c3cccc(C(F)(F)F)c3F)CCC4)CC2)c1 (stereo not shown) [17-9] | > 7.30 | > 8.00
O=C(C(O)c1cccc(C(F)(F)F)c1F)N1CCCc2nc(C3(c4cccc(F)c4)CC3)[nH]c(=O)c2C1 (stereo not shown) [17-10] | > 7.30 | > 8.00
O=C(Cc1cccc(C(F)(F)F)c1F)N1CCCc2nc(C3(c4ccccc4)CC3)[nH]c(=O)c2C1 [17-11] | > 7.30 | > 8.00
O=C([C@H](O)c1cccc(C(F)(F)F)c1)N1CCCc2nc(C3(c4cccc(Cl)c4)CC3)[nH]c(=O)c2C1 [17-12] | > 7.30 | > 8.00
O=C(C(O)c1cccc(OCc2ccccc2)c1)N1CCCc2nc(C3(c4cccc(Cl)c4)CC3)[nH]c(=O)c2C1 (stereo not shown) [17-13] | > 7.30 | > 8.00
O=C(C(O)c1cccc(-c2cccc(C(F)(F)F)c2)c1)N1CCCc2nc(C3(c4cccc(F)c4)CC3)[nH]c(=O)c2C1 (stereo not shown) [17-14] | > 7.30 | > 8.00
O=C(C(O)c1cccc(-c2cccc(OC(F)(F)F)c2)c1)N1CCCc2nc(C3(c4cccc(F)c4)CC3)[nH]c(=O)c2C1 (stereo not shown) [17-15] | > 7.30 | > 8.00
O=C(C(O)c1cccc(-c2cccc(C(F)(F)F)c2)c1)N1CCCc2nc(C3(c4cccc(Cl)c4)CC3)[nH]c(=O)c2C1 (stereo not shown) [17-16] | > 7.30 | > 8.00
O=C(C(O)c1cccc(-c2ccc(Cl)cc2)c1)N1CCCc2nc(C3(c4cccc(Cl)c4)CC3)[nH]c(=O)c2C1 (stereo not shown) [17-17] | > 7.30 | > 8.00
CC(C)(C)c1cccc(C(O)C(=O)N2CCCc3nc(C4(c5cccc(Cl)c5)CC4)[nH]c(=O)c3C2)c1 (stereo not shown) [17-18] | > 7.30 | > 8.00

SMILES | pIC50 [1] | pIC50 [2]
O=C(C(O)c1cccc(-c2cnc3ccccc3c2)c1)N1CCCc2nc(C3(c4cccc(Cl)c4)CC3)[nH]c(=O)c2C1 (stereo not shown) [17-19] | > 7.30 | > 8.00
O=C(C(O)c1cccc(C(F)(F)F)c1F)N1CCCc2nc(C3(c4ccccc4)CC3)[nH]c(=O)c2C1 (stereo not shown) [17-20] | > 7.30 | > 8.00
CC(C)(C)c1cccc(C(O)C(=O)N2CCCc3nc(C4(c5cccc(F)c5)CC4)[nH]c(=O)c3C2)c1 (stereo not shown) [17-21] | > 7.30 | > 8.00
O=C(C(O)c1ccccc1Oc1ccccc1)N1CCCc2nc(C3(c4cccc(Cl)c4)CC3)[nH]c(=O)c2C1 (stereo not shown) [17-22] | > 7.30 | > 8.00
O=C(C(O)c1cccc(-c2cccc(OC(F)(F)F)c2)c1)N1CCCc2nc(C3(c4cccc(Cl)c4)CC3)[nH]c(=O)c2C1 (stereo not shown) [17-23] | > 7.30 | > 8.00
O=C(C(O)c1cccc(C2CC2)c1)N1CCCc2nc(C3(c4cccc(Cl)c4)CC3)[nH]c(=O)c2C1 (stereo not shown) [17-24] | > 7.30 | > 8.00
O=C([C@H](O)c1cccc(C(F)(F)F)c1)N1CCCc2nc(C3(c4cccc(C5CCCCC5)c4)CC3)[nH]c(=O)c2C1 [17-25] | > 7.30 | > 8.00
O=C(Cc1cccc(SC(F)(F)F)c1)N1CCCc2nc(C3(c4ccccc4)CC3)[nH]c(=O)c2C1 [17-26] | > 7.30 | > 8.00
O=C(C(O)c1cccc(S(F)(F)(F)(F)F)c1)N1CCCc2nc(C3(c4cccc(Cl)c4)CC3)[nH]c(=O)c2C1 (stereo not shown) [17-27] | > 7.30 | > 8.00
O=C(C(O)c1cccc(SC(F)(F)F)c1)N1CCCc2nc(C3(c4cccc(Cl)c4)CC3)[nH]c(=O)c2C1 (stereo not shown) [17-28] | > 7.30 | > 8.00
O=C([C@H](O)c1cccc(Cl)c1)N1CCCc2nc(C3(c4cccc(Cl)c4)CC3)[nH]c(=O)c2C1 [17-29] | > 7.30 | > 8.00
O=C(C(O)c1cccc(SC(F)(F)F)c1)N1CCCc2nc(C3(c4cccc(F)c4)CC3)[nH]c(=O)c2C1 (stereo not shown) [17-30] | > 7.30 | > 8.00
O=C(Cc1cccc(S(F)(F)(F)(F)F)c1)N1CCCc2nc(C3(c4ccccc4)CC3)[nH]c(=O)c2C1 [17-31] | > 7.30 | > 8.00
O=C(C(O)c1cccc(S(F)(F)(F)(F)F)c1)N1CCCc2nc(C3(c4cccc(F)c4)CC3)[nH]c(=O)c2C1 (stereo not shown) [17-32] | > 7.30 | > 8.00
O=C(C(O)c1cccc(Oc2ccccc2)c1)N1CCCc2nc(C3(c4cccc(Cl)c4)CC3)[nH]c(=O)c2C1 (stereo not shown) [17-33] | > 7.30 | > 8.00
O=C(C(O)c1cccc(-c2ccc(Cl)cc2)c1)N1CCCc2nc(C3(c4cccc(F)c4)CC3)[nH]c(=O)c2C1 (stereo not shown) [17-34] | > 7.30 | > 8.00
O=C([C@H](O)c1cccc(F)c1F)N1CCCc2nc(C3(c4cccc(Cl)c4)CC3)[nH]c(=O)c2C1 [17-35] | > 7.30 | > 8.00
O=C([C@H](O)c1cccc(C(F)(F)F)c1)N1CCCc2nc(C3(c4cccc(F)c4)CC3)[nH]c(=O)c2C1 [17-36] | > 7.30 | > 8.00
O=C([C@H](O)c1cccc(C(F)(F)F)c1)N1CCCc2nc(C3(c4ccccc4)CC3)[nH]c(=O)c2C1 [17-37] | > 7.30 | > 8.00
O=C(C(O)c1cccc(SC(F)(F)F)c1)N1CCCc2nc(C3(c4ccccc4)CC3)[nH]c(=O)c2C1 (stereo not shown) [17-38] | > 7.30 | > 8.00
CC(C)c1cccc(C2(c3nc4c(c(=O)[nH]3)CN(C(=O)C(O)c3cccc(S(F)(F)(F)(F)F)c3)CCC4)CC2)c1 (stereo not shown) [17-39] | > 7.30 | > 8.00
O=C(C(O)c1cccc(Oc2cccc(C(F)(F)F)c2)c1)N1CCCc2nc(C3(c4cccc(Cl)c4)CC3)[nH]c(=O)c2C1 (stereo not shown) [17-40] | > 7.30 | > 8.00
O=C(C(O)c1cccc(S(F)(F)(F)(F)F)c1)N1CCCc2nc(C3(c4ccccc4)CC3)[nH]c(=O)c2C1 (stereo not shown) [17-41] | > 7.30 | > 8.00
O=C(C(O)c1cccc(Cl)c1F)N1CCCc2nc(C3(c4ccccc4)CC3)[nH]c(=O)c2C1 (stereo not shown) [17-42] | > 7.30 | –
O=C(C(O)c1ccccc1C(F)(F)F)N1CCCc2nc(C3(c4cccc(Cl)c4)CC3)[nH]c(=O)c2C1 (stereo not shown) [17-43] | > 7.30 | –
CC(C)c1cccc(C2(c3nc4c(c(=O)[nH]3)CN(C(=O)C(O)c3cccc(SC(F)(F)F)c3)CCC4)CC2)c1 (stereo not shown) [17-44] | > 7.30 | –
CC(C)c1cccc(C2(c3nc4c(c(=O)[nH]3)CN(C(=O)C(O)c3cccc(-c5cccc(C(F)(F)F)c5)c3)CCC4)CC2)c1 (stereo not shown) [17-45] | > 7.30 | –
